Assay results taken from US10806794B2, “Protease inhibitors having enhanced features” (priority 2008, dated 2020).
Where “and” joins values, the source holds several entries; their conditions need not be identical. Equal values may be shown once. Read-outs that look alike come from different tables or passages of the source.

Experiments:
[1] = tested on: dog plasma proteins; experiment: Plasma protein binding by equilibrium dialysis, dog plasma; assay type: in vitro ADME; details: fraction unbound
Description: (§1) In assays to estimate binding of test compounds to plasma proteins, test compound solutions (5 μM) are prepared in buffer and species-specific plasma (final DMSO concentration 0.5%). The plasma-containing solution is added to one side of the membrane of an equilibrium dialysis system, and the plasma-free is added to the other side. Dialysis was allowed to reach equilibrium by incubation for two hours at 37° C. The concentration of compound on both sides of the membrane was measured using LC-MS/MS.

[2] = molecular target: recombinant HIV-1 protease (Human immunodeficiency virus type 1 group M subtype B (isolate HXB2) (HIV-1), UniProt P04585); experiment: Enzyme inhibition of purified HIV-1 protease (SensoLyte 520 HIV-Protease Assay Kit); assay type: biochemical; details: read-out: IC50 ± SD
Description: Protease inhibitors (PI) are used to treat HIV infection by preventing viral assembly and maturation through the inhibition of HIV-1 protease activity. Biochemical assays were performed to evaluate the potential of PEG-PI conjugates to inhibit HIV-1 protease activity, relative to their respective PI parent molecules. Activity assays were performed at using the SensoLyte 520 HIV-Protease Assay Kit (Anaspec Inc., San Jose, Calif.) and recombinant HIV-1 protease. Protease activity was monitored by the formation of a fluorescent reporter product generated during HIV-1 protease-mediated digestion of a quenched, fluorimetric substrate containing the p17/p24 Pr^gag cleavage site.

[3] = molecular target: CYP2C9 (Homo sapiens (Human), UniProt P11712); details: microsomes
[4] = molecular target: CYP3A4 (Homo sapiens (Human), UniProt P08684); experiment: CYP450 inhibition in human liver microsomes: CYP3A4;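 further: incubation at 37 °C started by adding 1 mM NADPH, with formation of the probe metabolite measured via LC-MS/MS or fluorescent detection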
[5] = tested on: monkey plasma proteins; experiment: Plasma protein binding by equilibrium dialysis, monkey plasma; assay type: in vitro ADME; details: fraction unbound
Description: as §1

[6] = Metabolic stability in human liver microsomes; details: human liver microsomes, 3 μM;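 on t1/2: microsomal protein 0.5 mg/mL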
Outline: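 Substrate depletion: compounds at 3 μM final with pooled mixed-sex human liver microsomes (0.5 mg/mL) in 0.1 M phosphate pH 7.4 at 37 °C. Remaining parent quantified by LC-MS/MS.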

[7] = tested on: rat plasma proteins; experiment: Plasma protein binding by equilibrium dialysis, rat plasma; assay type: in vitro ADME; details: fraction unbound
Description: as §1

[8] = tested on: human monocytes; experiment: Toxicity in human monocytes in the absence of viral infection
Description: Fresh human monocytes were infected with the BaL strain of HIV-1 in the presence of test compounds. After seven days in culture, HIV-1 replication was evaluated by measurement of HIV-1 viral capsid protein (p24) in the tissue culture supernatant (Table 7). […] A TI was calculated as described above using TC50 values derived from cell toxicity data in response to test compounds in the absence of viral infection.

[9] = tested on: beagle dog hepatocytes; experiment: Metabolic stability in beagle dog hepatocytes; assay type: in vitro ADME; details: 0.1 uM
[10] = tested on: HIV-1RF; experiment: Anti-HIV cytoprotection in CEM-SS cells infected with HIV-1RF (XTT); assay type: cell-based
Description: To evaluate whether conjugated protease inhibitors retain the ability to protect against HIV-1 infection, CEM-SS cells infected with the RF strain of HIV-1 were treated with test compounds for six days, and then cell viability was monitored using the tetrazolium dye XTT. […] A value for Therapeutic Index (TI) was calculated as TC50/EC50.

[11] = molecular target: CYP1A2 (Homo sapiens (Human), UniProt P05177); experiment: CYP450 inhibition in human liver microsomes: CYP1A2; details: read-out: CYP1A2 IC50 Phenacetin; probe substrate phenacetin
[12] = tested on: PBMCs; experiment: PBMC macromolecule synthesis (tritiated precursor incorporation); assay type: cell-based, human; details: for Thymidine Incorporation (PBMC) TC50: DNA synthesis; for Uridine Incorporation (PBMC) TC50: RNA synthesis; for Leucine Incorporation (PBMC) TC50: protein synthesis
Description: (§2) Cellular macromolecule synthesis was evaluated using tritiated precursor incorporation assays. PBMCs (5×10^4 cells/well) were cultured in the presence or absence of test compound for 7 days at 37 C, 5% CO2 in a 96-well microtiter plate. On day 6 of the incubation, 1 uCi of [methyl-3H]-thymidine for DNA synthesis, [5-3H]-uridine for RNA synthesis, or [3,4,5-3H]-leucine for protein synthesis was added to compound-treated cells, and the plate was further incubated for 16 hours. The cells were transferred to a glass fiber filtermat using an Inotech cell harvester. The filtermats were washed with distilled water then sealed in a bag with scintillation fluid. Incorporated radioactivity was measured using a Wallac scintillation counter.

[13] = tested on: CEM-SS cells; experiment: CEM-SS macromolecule synthesis (tritiated precursor incorporation); assay type: cell-based; details: for Thymidine incorportation (CEM-SS) TC50: DNA synthesis; for Uridine incorporation (CEM-SS) TC50: RNA synthesis; for Leucine Incorporation (CEM-SS) TC50: protein synthesis
Description: as §2, with “CEM-SS cells (2.5×10^3” for “PBMCs (5×10^4”

[14] = Bi-directional permeability in Caco-2 monolayers; details: human, Caco-2
Description: Absorption properties of various compounds were measured using bi-directional permeability assays in Caco-2 cells. […] The efflux ratio is calculated as the ratio of the Papp(B→A)/Papp(A→B).

[15] = read-out: CYP3A4 IC50 Midazolam, probe substrate midazolam
[16] = read-out: CYP3A4 IC50 Testosterone, probe substrate testosterone
[17] = six days, XTT, read-out: CEM-SS/HIV-1RF EC50 ± SD
[18] = monocyte/macrophages, absence of viral infection

CYP3A4, sequence (P08684 whole entry): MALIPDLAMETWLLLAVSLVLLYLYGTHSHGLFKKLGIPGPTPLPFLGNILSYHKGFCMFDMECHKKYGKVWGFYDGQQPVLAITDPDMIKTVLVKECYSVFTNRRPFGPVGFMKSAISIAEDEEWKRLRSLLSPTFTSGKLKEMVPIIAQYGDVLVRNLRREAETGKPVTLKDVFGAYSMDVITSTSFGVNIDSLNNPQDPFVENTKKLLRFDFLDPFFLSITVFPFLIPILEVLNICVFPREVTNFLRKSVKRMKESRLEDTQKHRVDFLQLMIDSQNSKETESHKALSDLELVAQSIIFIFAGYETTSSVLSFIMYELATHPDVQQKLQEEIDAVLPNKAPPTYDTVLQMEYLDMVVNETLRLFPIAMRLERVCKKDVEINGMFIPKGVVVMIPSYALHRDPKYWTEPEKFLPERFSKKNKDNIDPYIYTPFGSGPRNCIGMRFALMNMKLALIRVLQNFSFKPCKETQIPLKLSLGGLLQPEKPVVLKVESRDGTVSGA
CYP1A2, sequence (P05177 whole entry): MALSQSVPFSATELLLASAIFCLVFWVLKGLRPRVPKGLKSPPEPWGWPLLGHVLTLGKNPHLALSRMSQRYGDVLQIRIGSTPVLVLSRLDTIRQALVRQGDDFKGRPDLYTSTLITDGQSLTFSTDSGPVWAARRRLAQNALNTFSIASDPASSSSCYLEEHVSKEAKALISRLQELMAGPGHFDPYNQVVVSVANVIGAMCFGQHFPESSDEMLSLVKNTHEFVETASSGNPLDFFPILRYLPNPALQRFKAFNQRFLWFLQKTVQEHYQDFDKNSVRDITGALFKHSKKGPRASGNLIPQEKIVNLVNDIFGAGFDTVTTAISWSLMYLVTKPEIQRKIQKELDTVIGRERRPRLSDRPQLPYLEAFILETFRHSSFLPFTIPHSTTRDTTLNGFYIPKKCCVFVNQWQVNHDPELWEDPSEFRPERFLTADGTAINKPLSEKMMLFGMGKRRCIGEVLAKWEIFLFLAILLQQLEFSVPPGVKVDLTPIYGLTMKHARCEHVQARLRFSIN
CYP2C9, sequence (P11712 whole entry): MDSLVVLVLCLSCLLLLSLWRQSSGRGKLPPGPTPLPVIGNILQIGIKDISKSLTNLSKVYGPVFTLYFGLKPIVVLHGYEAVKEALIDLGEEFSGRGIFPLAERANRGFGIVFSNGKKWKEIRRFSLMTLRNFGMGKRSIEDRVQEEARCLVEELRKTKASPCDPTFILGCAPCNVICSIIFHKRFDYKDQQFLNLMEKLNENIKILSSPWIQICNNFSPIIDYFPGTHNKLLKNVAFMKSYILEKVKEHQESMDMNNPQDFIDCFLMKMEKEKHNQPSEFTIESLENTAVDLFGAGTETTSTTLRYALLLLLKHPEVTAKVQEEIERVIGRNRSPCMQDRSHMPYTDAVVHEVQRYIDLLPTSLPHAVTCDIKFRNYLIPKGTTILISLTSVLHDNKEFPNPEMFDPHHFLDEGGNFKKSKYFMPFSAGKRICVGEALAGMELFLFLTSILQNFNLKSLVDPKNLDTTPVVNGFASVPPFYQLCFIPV

Compound | Dog Plasma Protein Binding Fu ± SD [1] | IC50 [2] [µM] | IC50 [3] [µM] | IC50 [4, 15] [µM] | IC50 [4, 16] [µM] | Monkey Plasma Protein Binding Fu ± SD [5] | CLint ± SEM [6] [μL/min/mg protein] | t1/2 [6] [min] | Rat Plasma Protein Binding Fu ± SD [7] | TC50 [8] [µM] | CLint ± SEM [9] [μL/min/10^6 cells] | t1/2 [9] [min] | EC50 [10, 17] [µM] | IC50 [11] [µM] | Thymidine Incorporation (PBMC) TC50 [12] [µM] | Uridine Incorporation (PBMC) TC50 [12] [µM] | Leucine Incorporation (PBMC) TC50 [12] [µM] | Thymidine incorportation (CEM-SS) TC50 [13] [µM] | Uridine incorporation (CEM-SS) TC50 [13] [µM] | TC50 [8, 18] [µM] | further results
COCCOC(=O)NC(C(=O)NC(Cc1ccccc1)C(O)CN(Cc1ccc(-c2ccccn2)cc1)NC(=O)C(NC(=O)OC)C(C)(C)C)C(C)(C)C (stereo not drawn) [mono-mPEG1-Atazanavir] | 0.208 ± 0.0317 | 0.00282 | > 25 | 2.56 | 10.4 | 0.246 ± 0.0239 | 181 ± 0.640 | 7.65 | 0.0793 ± 0.00541 | 159.1 | 31.1 ± 0.000512 | 44.5 | 0.002 ± 0.0006 | > 25 |  |  |  |  |  |  | 
COCCOCCOCCOCCOCCOCCOCCOC(=O)NC(C(=O)NC(Cc1ccccc1)C(O)CN(Cc1ccc(-c2ccccn2)cc1)NC(=O)C(NC(=O)OC)C(C)(C)C)C(C)(C)C (stereo not drawn) [mono-mPEG7-Atazanavir] | 0.306 ± 0.0478 | 0.00129 | > 25 | 20.1 | > 25 | 0.570 ± 0.0439 | 71.0 ± 5.63 | 19.5 | 0.255 ± 0.0778 | 132.2 |  |  | 0.03 ± 0.02 | > 25 |  |  |  |  |  |  | 
CC(C)CN(C[C@@H](O)[C@H](Cc1ccccc1)NC(=O)O[C@H]1CO[C@H]2OCC[C@H]21)S(=O)(=O)c1ccc(N)cc1 [Darunavir, reference compound] |  |  |  |  |  |  |  |  |  |  |  |  |  |  | 184.3 | 189.3 | 258.3 | 223.2 | >400 | >200.0 | Leucine Incorporation (CEM-SS) TC50 [13]: 285.8 µM; Papp A→B [14]: 2.55 ×10⁻⁶ cm/s; EC50 ([10]; Human immunodeficiency virus 1, CEM-SS, 144 h, read-out: CEM-SS/HIV-1RF EC50 ± SD, six days, XTT): < 0.0007 µM; EC50 ([10]; read-out: CEM-SS/HIV-1RF EC50 ± SD, six days, XTT): < 0.00066 µM and 0.001 µM
COCCOCCOCCOc1ccc(C[C@H](NC(=O)O[C@H]2CO[C@H]3OCC[C@H]32)C(O)CN(CC(C)C)S(=O)(=O)c2ccc(N)cc2)cc1 (stereo partly drawn) [mPEG3-O-Darunavir] |  |  |  | 2.59 | 4.9 |  | 77.4 ± 9.14 | 17.9 |  |  | 15.5 ± 0.000361 | 89.5 |  |  | 109.6 | 139.4 | 218.9 | 262.9 | >400 | >200.0 | Leucine Incorporation (CEM-SS) TC50 [13]: >400 µM
COCCOCCOCCOCCOCCNc1ccc(S(=O)(=O)N(CC(C)C)CC(O)[C@H](Cc2ccccc2)NC(=O)O[C@H]2CO[C@H]3OCC[C@H]32)cc1 (stereo partly drawn) [mPEG5-N-Darunavir] |  |  |  | 2.7 | 4 |  | 440 ± 19.0 | 3.15 |  |  |  |  |  |  | 41.3 | 73.2 | 98.5 |  |  | >200.0 | 
